Laboratory results from ChEMBL document CHEMBL1130464, “Analogues of trichosatin a and trapoxin B as histone deacetylase inhibitors” (Bioorg Med Chem Lett, 1997).

How the values were obtained:
[1] = target: T1, Histone deacetylase HD2 (Zea mays) (UniProt Q94F81)
T1 sequence (whole entry): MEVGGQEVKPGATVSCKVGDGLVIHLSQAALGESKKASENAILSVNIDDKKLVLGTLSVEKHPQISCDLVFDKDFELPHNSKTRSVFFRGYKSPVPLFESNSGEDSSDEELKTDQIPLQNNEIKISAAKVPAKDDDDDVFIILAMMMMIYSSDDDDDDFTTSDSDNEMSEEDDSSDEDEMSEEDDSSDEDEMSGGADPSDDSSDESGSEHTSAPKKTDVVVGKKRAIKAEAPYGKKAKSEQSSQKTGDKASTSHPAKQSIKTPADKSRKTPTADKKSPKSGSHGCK

[2] = target: T1, Histone deacetylase HD2 (Zea mays); test: Inhibitory concentration against deacetylase HD2 enzyme of maize at 30 uM

IC90 [1] [nM] | inhibition [2] [%] | Structure (SMILES)
100 | – | CC(/C=C/C(=O)NO)=C\[C@@H](C)C(=O)c1ccc(N(C)C)cc1
– | 94 | CN(C)c1ccc(C(=O)NCCCCCC(=O)NO)cc1
– | 82 | O=C(CCCCCCC(=O)N[C@@H](Cc1ccccc1)C(=O)O)NO
– | 76 | COC(=O)[C@H](Cc1ccccc1)NC(=O)CCCCCCC(=O)NO
